Laboratory results published in ChEMBL document CHEMBL1201862, “PubChem BioAssay data set” (2004).
Blank lines part the entries; values can stand above or below the molecule they belong to. Active and inactive are the calls of the source.

How the values were obtained:
[1] = inhibitors of intracellular T. cruzi replication, confirmation, NIH3T3 host cells, beta-gal luminescence (AID 2044); type: functional, cell-based;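 note: intracellular parasites grown in NIH/3T3 mouse fibroblasts as host cells; luminescent beta-galactosidase reporter signal from transgenic T. cruzi replicating inside host cells; inhibitors lower the luminescence signal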
[2] = cytotoxicity toward NIH3T3 fibroblasts, dose response, counter-screen, cell-based, ATP luminescence, mouse fibroblasts (AID 2010); type: functional;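 note: cells exposed to compound for about 90 hours before reading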
[3] = cells
[4] = molecular target: Kallikrein-7 (Homo sapiens, UniProt P49862); test: Fluorescence Intensity-based biochemical primary high throughput dose response assay to identify activators of kallikrein-7 (K7) zymogen.
[5] = test system: HEK293; test: HEK293T cell cytotoxicity, dose response, cytotoxicity control, ATP luminescence, cherry-pick samples (AID 687005); type: functional, cell-based; conditions: Homo sapiens;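 note: cells exposed to compound for 48 hours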
[6] = HEK293 Cytotoxicity Assay Measured in Cell-Based System Using Plate Reader - 7071-01_Inhibitor_Dose_CherryPick_Activity_Set2.; type: functional
[7] = cytotoxicity in OVCAR8 ovarian cancer cells, dose response, PAX8 project, cell-based, plate reader, dry powder samples (AID 743197); type: functional; conditions: OVCAR-8
[8] = NIH:OVCAR-3 ovarian cancer cell cytotoxicity, dose response, PAX8 inhibitor project, plate reader, dry powder samples (AID 743044); type: functional, cell-based
[9] = molecular target: Paired box protein Pax-8 (Homo sapiens, UniProt Q06710); test: inhibitors of PAX8-driven TPO luciferase reporter, dose response, RMG-I cells, cherry-pick (AID 687027); type: functional, cell-based;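 note: luciferase reporter driven by Pax8 target thyroperoxidase promoter measured by SteadyGlo luminescence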
[10] = molecular target: COUP transcription factor 2 (Homo sapiens, UniProt P24468); test: Luminescence-based cell-based high throughput dose response assay to identify inhibitors of COUP-TFII (NR2F2).; type: functional;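 note: HEK293 cells transiently cotransfected with COUP-TFII expression vector and reporter; luciferase reporter luminescence driven by COUP-TFII from the pX2-168 reporter plasmid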
[11] = molecular target: Potassium channel subfamily K member 3 (Homo sapiens, UniProt O14649); test: TASK1 (KCNK3) potassium channel inhibitors, SAR follow-up, CHO cells, FluxOR thallium flux (AID 652212); type: functional
[12] = molecular target: Potassium channel subfamily K member 9 (Homo sapiens, UniProt Q9NPC2); test: TASK3 (KCNK9) channel inhibitors, thallium flux, SAR follow-up, selectivity assay for TASK1 inhibitor project, cell-based, FluxOR thallium flux, concentration-response (AID 652211); type: functional;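 note: potency is for inhibitors of the channel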
[13] = inhibitors of PGC1a acetylation in cells, dose response, cell-based, cherry-picked samples (AID 720514); type: functional;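 note: potency may reflect raised or lowered acetylation signal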
[14] = molecular target: Transthyretin (Homo sapiens, UniProt P02766); test: Luminescence-based cell-based high throughput dose response assay to identify activators of Transthyretin (TTR) transcription.; type: functional
[15] = Glucagon-like peptide 1 release potency, NCI-H716 cell line, dose-response, half-maximal inhibitory concentration (AID 1117344); type: functional, cell-based
[16] = half-maximal inhibitory concentration for glucagon-like peptide-1 release, STC-1 cell line, dose-response (AID 1117345); type: functional, cell-based

Chain of Potassium channel subfamily K member 9 (Q9NPC2 whole entry): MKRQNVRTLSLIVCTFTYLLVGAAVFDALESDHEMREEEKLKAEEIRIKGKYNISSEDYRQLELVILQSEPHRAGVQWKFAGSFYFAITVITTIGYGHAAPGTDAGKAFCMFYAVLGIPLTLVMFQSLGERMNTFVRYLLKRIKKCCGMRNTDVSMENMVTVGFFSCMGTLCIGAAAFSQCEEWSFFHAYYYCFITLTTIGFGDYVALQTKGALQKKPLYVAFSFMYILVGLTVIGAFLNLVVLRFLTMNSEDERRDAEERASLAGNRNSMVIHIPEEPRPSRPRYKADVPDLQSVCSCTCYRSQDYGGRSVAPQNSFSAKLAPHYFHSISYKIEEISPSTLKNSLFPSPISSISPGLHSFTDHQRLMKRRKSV
Chain of Potassium channel subfamily K member 3 (O14649 whole entry): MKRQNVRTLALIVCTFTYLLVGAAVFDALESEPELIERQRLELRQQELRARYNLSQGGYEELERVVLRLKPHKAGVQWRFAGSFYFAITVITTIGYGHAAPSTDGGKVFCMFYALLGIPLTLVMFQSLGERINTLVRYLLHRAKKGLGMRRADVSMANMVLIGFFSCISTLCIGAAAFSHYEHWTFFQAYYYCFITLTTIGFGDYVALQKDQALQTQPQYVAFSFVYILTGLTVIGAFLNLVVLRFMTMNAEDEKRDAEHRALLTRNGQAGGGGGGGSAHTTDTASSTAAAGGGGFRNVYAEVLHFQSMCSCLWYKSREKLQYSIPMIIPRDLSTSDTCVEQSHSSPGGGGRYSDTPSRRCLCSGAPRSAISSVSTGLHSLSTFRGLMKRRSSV
Chain of Paired box protein Pax-8 (Q06710 whole entry): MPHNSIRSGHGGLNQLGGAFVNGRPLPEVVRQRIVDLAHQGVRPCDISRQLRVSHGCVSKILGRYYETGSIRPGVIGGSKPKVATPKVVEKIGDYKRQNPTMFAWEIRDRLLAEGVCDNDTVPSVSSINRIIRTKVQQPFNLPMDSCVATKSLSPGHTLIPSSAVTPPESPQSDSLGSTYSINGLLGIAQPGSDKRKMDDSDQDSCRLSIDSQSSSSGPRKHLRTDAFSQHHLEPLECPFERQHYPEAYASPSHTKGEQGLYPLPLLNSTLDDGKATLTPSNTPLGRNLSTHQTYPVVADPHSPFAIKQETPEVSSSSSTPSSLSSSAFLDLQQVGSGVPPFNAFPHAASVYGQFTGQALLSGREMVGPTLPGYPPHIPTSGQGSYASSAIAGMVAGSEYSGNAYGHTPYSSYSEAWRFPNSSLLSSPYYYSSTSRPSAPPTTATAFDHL
Chain of COUP transcription factor 2 (P24468 whole entry): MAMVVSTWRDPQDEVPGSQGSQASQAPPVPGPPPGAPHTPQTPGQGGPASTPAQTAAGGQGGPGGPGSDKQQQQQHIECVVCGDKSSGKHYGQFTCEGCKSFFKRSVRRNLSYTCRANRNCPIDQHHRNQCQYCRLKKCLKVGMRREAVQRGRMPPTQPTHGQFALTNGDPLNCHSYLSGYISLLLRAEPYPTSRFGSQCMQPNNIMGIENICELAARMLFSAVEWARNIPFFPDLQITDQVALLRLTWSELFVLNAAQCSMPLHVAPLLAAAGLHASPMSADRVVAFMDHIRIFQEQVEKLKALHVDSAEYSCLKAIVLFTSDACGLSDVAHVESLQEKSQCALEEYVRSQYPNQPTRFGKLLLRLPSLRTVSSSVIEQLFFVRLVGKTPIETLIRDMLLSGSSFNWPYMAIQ
Chain of Kallikrein-7 (P49862 whole entry): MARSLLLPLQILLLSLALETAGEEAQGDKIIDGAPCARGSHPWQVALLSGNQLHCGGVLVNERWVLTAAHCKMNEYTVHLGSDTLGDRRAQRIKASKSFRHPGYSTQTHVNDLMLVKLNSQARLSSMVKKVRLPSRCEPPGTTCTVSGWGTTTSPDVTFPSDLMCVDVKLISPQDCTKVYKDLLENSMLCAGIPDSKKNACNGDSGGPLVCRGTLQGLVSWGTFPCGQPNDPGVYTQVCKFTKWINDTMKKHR

Structure (SMILES): Cc1ccc(CNC(=O)CCC2CCCN(Cc3c(C)nn(C(C)C)c3C)C2)o1 (stereo not given)
EC50 [1]: < 0.1 µM (active) | EC50 [2]: > 60 µM (not active) | EC50 [3]: 0.011 µM (active)

EC50 [4]: 12.1 µM (inactive)
Structure (SMILES): COc1ccccc1C1C=C(c2ccccc2)Nc2nnnn21 (stereo not given)

Structure (SMILES): O=C(C[C@H]1CC[C@H]2[C@@H](COC[C@H](O)CN2Cc2cccc(Cl)c2)O1)Nc1nccs1
AC50 [5]: 16.7 µM (active) | AC50 [6]: 16.7 µM (active)

Structure (SMILES): C[C@@H]1CN([C@H](C)CO)C(=O)c2cc(NC(=O)CCC(F)(F)F)ccc2O[C@@H](C)CCCCO[C@@H]1CN(C)Cc1ccc(C(F)(F)F)cc1
AC50 [7]: 45.3 µM (active) | AC50 [8]: 26.5 µM (active) | AC50 [9]: 8.65 µM (active)

IC50 [10]: 4.18 µM (active)
Structure (SMILES): O=C(c1cccs1)C1CCN(c2ncnc3sccc23)CC1

IC50 [11]: 0.159 µM (active) | IC50 [12]: 6.31 µM (active)
Structure (SMILES): COc1ccccc1C(=O)Nc1cc(NC(=O)c2cccc(C)c2)ccc1F

Structure (SMILES): N#Cc1ccc(-c2ccc([C@@H]3[C@H]4CNC[C@@H]3N4Cc3ccc4c(c3)OCO4)cc2)cc1
AC50 [13]: 16.9 µM (active)

IC50 [11]: 0.007 µM (active) | IC50 [12]: 1.18 µM (active)
Structure (SMILES): CCOc1ccccc1NC(=O)c1cccc(NC(=O)c2ccccc2OC)c1

EC50 [14]: > 167 µM (inactive)
Structure (SMILES): Cc1ccccc1Cn1cc(COC(=O)N(C)Cc2ccccc2)nn1

Structure (SMILES): Cc1c(C)n(CCN(C)C)c2ccc(C(=O)OCCN(C)C)cc12 [AMINDOCATE]
IC50 [15]: > 40 µM (inactive) | IC50 [16]: 1.2 µM (active)

Structure (SMILES): O=c1[nH]sc2cc(Cl)ccc12 [TICLATONE]
IC50 [15]: > 40 µM (inactive) | IC50 [16]: > 40 µM (inactive)
